Results from US8299111B2, “Compounds which modulate the CB2 receptor” (Boehringer Ingelheim International GmbH, priority 2006, dated 2012).

molecular target: T1, human CB2R (Homo sapiens, UniProt P34972); experiment: CB2R mediated modulation of cAMP synthesis; assay type: cell-based; conditions: found through the use of the above described assays (binding and cAMP); CHO cells expressing human CB2R, forskolin-stimulated cAMP
T1 construct: host or cells: CHO cells
Procedure: B. CB2R Mediated Modulation of cAMP Synthesis:
CHO cells expressing human CB2R (Euroscreen) were plated at a density of 5000 cells per well in 384 well plates and incubated overnight at 37° C. After removing the media, the cells were treated with test compounds diluted in stimulation buffer containing 1 mM IBMX, 0.25% BSA and 10 uM Forskolin. The assay was incubated for 30 minutes at 37° C. Cells were lysed and the cAMP concentration was measured using DiscoverX -XS cAMP kit, following the manufacturer's protocol. In this setting, agonists will decrease forskolin induced production of cAMP while inverse agonists will further increase forskolin induced production of cAMP. EC50 of agonists were calculated as follows. The maximal amount of cAMP produced by forskolin compared to the level of cAMP inhibited by 1 uM CP55940 is defined as 100%. The EC50 value of each test compound was determined as the concentration at which 50% of the forskolin-stimulated cAMP synthesis was inhibited. Data was analyzed using a four-parameter logistic model. (Model 205 of XLfit 4.0).

T1 sequence (P34972 whole entry): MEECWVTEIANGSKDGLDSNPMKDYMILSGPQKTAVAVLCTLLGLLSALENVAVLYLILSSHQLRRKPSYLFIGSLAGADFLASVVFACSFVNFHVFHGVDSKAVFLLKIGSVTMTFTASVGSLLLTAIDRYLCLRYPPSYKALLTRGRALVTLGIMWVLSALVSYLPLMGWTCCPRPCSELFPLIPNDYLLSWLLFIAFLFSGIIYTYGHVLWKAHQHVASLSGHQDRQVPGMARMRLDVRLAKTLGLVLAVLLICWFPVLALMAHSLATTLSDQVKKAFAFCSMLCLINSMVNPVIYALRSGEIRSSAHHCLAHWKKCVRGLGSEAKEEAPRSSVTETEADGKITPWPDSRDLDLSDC

| agonistic activity | SMILES |
| --- | --- |
| agonistic activity | Cc1ccc(S(=O)(=O)C(C)(C)C(=O)Nc2cccc(C(F)(F)F)n2)cc1F [2-(3-Fluoro-4-methyl-benzenesulfonyl)-2-methyl-N-(6-trifluoromethyl-pyridin-2-yl)-propionamide] |
| agonistic activity | CC(C)(C(=O)Nc1ccc(C(F)(F)F)cn1)S(=O)(=O)c1cccc(F)c1 [2-(3-Fluoro-benzenesulfonyl)-2-methyl-N-(5-trifluoromethyl-pyridin-2-yl)-propionamide] |
| agonistic activity | CC(C)(C(=O)Nc1cccc(C(F)(F)F)n1)S(=O)(=O)c1ccc(Br)cc1 [2-(4-Bromo-benzenesulfonyl)-2-methyl-N-(6-trifluoromethyl-pyridin-2-yl)-propionamide] |
| agonistic activity | Cn1nc(C(C)(C)C)cc1NC(=O)C(C)(C)S(=O)(=O)c1ccc(Br)cc1 [2-(4-Bromo-benzenesulfonyl)-N-(5-tert-butyl-2-methyl-2H-pyrazol-3-yl)-2-methyl-propionamide] |
| agonistic activity | Cn1nc(-c2ccccc2)cc1NC(=O)C(C)(C)S(=O)(=O)c1ccc(Cl)cc1F [2-(4-Chloro-2-fluoro-benzenesulfonyl)-2-methyl-N-(2-methyl-5-phenyl-2H-pyrazol-3-yl)-propionamide] |
| agonistic activity | CC(C)(C(=O)Nc1cc(C(F)(F)F)ccn1)S(=O)(=O)c1ccc(Cl)cc1F [2-(4-Chloro-2-fluoro-benzenesulfonyl)-2-methyl-N-(4-trifluoromethyl-pyridin-2-yl)-propionamide] |
| agonistic activity | CC(C)(C(=O)Nc1ccc(C(F)(F)F)cn1)S(=O)(=O)c1ccc(Cl)cc1F [2-(4-Chloro-2-fluoro-benzenesulfonyl)-2-methyl-N-(5-trifluoromethyl-pyridin-2-yl)-propionamide] |
| agonistic activity | CCc1sc(NC(=O)C(C)(C)S(=O)(=O)c2ccc(Cl)cc2F)nc1-c1ccccc1 [2-(4-Chloro-2-fluoro-benzenesulfonyl)-N-(5-ethyl-4-phenyl-thiazol-2-yl)-2-methyl-propionamide] |
| agonistic activity | Cn1c(NC(=O)C(C)(C)S(=O)(=O)c2ccc(Cl)cc2)nc2ccccc21 [2-(4-Chloro-benzenesulfonyl)-2-methyl-N-(1-methyl-1H-benzoimidazol-2-yl)-propionamide] |
| agonistic activity | Cn1nc(-c2ccccc2)cc1NC(=O)C(C)(C)S(=O)(=O)c1ccc(Cl)cc1 [2-(4-Chloro-benzenesulfonyl)-2-methyl-N-(2-methyl-5-phenyl-2H-pyrazol-3-yl)-propionamide] |
| agonistic activity | Cn1nc(-c2cccs2)cc1NC(=O)C(C)(C)S(=O)(=O)c1ccc(Cl)cc1 [2-(4-Chloro-benzenesulfonyl)-2-methyl-N-(2-methyl-5-thiophen-2-yl-2H-pyrazol-3-yl)-propionamide] |

| SMILES | agonistic activity |
| --- | --- |
| CC(C)(C(=O)Nc1ccc(C(F)(F)F)cn1)S(=O)(=O)c1ccc(Br)cc1 [2-(4-Bromo-benzenesulfonyl)-2-methyl-N-(5-trifluoromethyl-pyridin-2-yl)-propionamide] | agonistic activity |
| CC(C)(C)c1cc(NC(=O)C(C)(C)S(=O)(=O)c2ccc(Br)cc2)no1 [2-(4-Bromo-benzenesulfonyl)-N-(5-tert-butyl-isoxazol-3-yl)-2-methyl-propionamide] | agonistic activity |
| CC(C)(C(=O)Nc1cccc(C(F)(F)F)n1)S(=O)(=O)c1ccc(Cl)cc1F [2-(4-Chloro-2-fluoro-benzenesulfonyl)-2-methyl-N-(6-trifluoromethyl-pyridin-2-yl)-propionamide] | agonistic activity |
| CC(C)(C(=O)Nc1ccccc1C(F)(F)F)S(=O)(=O)c1ccc(Cl)cc1 [2-(4-Chloro-benzenesulfonyl)-2-methyl-N-(2-trifluoromethyl-phenyl)-propionamide] | agonistic activity |
